Data published in PubChem BioAssay (NCI).
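GI50 marks 50% less growth. Definition used: TGI = concentration required for complete inhibition of growth.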

Assays:
Experiment in all cases: inhibition of tumour cell growth, NCI panel, 384-well format
[1] = test system: IGROV1 ovarian
[2] = test system: HCT-116 colon
[3] = test system: M14 melanoma
[4] = test system: HCC-2998 colon
[5] = test system: MDA-MB-231 breast
[6] = test system: SF-295 CNS
[7] = test system: MOLT-4 leukemia
[8] = test system: OVCAR-3 ovarian
[9] = test system: T-47D breast
[10] = test system: OVCAR-4 ovarian
[11] = test system: OVCAR-8 ovarian
[12] = test system: SK-MEL-28 melanoma
[13] = test system: SK-MEL-2 melanoma
[14] = test system: NCI-H460 NSCLC
[15] = test system: NCI/ADR-RES ovarian
[16] = test system: CAKI-1 renal
[17] = test system: NCI-H522 lung
[18] = test system: LOX IMVI melanoma
[19] = test system: UACC-257 melanoma
[20] = test system: HL-60(TB) leukemia
[21] = test system: A549 NSCLC
[22] = test system: MCF7 breast
[23] = test system: EKVX NSCLC
[24] = test system: NCI-H23 lung
[25] = test system: MALME-3M melanoma
[26] = test system: SF-539 CNS
[27] = test system: NCI-H226 lung
[28] = test system: HT29 colon
[29] = test system: KM12 colon
[30] = test system: A498 renal
[31] = test system: K-562 leukemia
[32] = test system: OVCAR-5 ovarian
[33] = test system: HS 578T breast
[34] = test system: HOP-62 NSCLC
[35] = test system: TK-10 renal
[36] = test system: SR leukemia
[37] = test system: 786-0 renal
[38] = test system: SNB-19 CNS
[39] = test system: UO-31 renal
[40] = test system: MDA-MB-468 breast
[41] = test system: NCI-H322M lung
[42] = test system: SNB-75 CNS
[43] = test system: PC-3 prostate
[44] = test system: ACHN renal
[45] = test system: RPMI-8226 leukemia
[46] = test system: SN12C renal
[47] = test system: SW-620 colon

Question: Which GI50 [1] does the source give for O=C(c1cc(Cc2n[nH]c(=O)c3ccccc23)ccc1F)N1CCN(C(=O)C2CC2)CC1 here?
Answer: Its GI50 is over 62.7 µM.

Question: What about the TGI [1] of the same compound?
Answer: The TGI was over 100 µM.

Question: And the GI50 [2]?
Answer: The GI50 was 8.27 µM.

Question: And the TGI [2]?
Answer: Its TGI is over 100 µM.

Question: What about the GI50 [3] of the same compound?
Answer: The GI50 was over 91.5 µM.

Question: What about the TGI [3] of the same compound?
Answer: The TGI was over 100 µM.

Question: What about the GI50 [4] of the same compound?
Answer: The GI50 was over 29.2 µM.

Question: And the TGI [4]?
Answer: Its TGI is over 100 µM.

Question: And the GI50 [5]?
Answer: The GI50 was over 61.1 µM.

Question: And the TGI [5]?
Answer: The TGI was over 100 µM.

Question: And the GI50 [6]?
Answer: The GI50 was 4.68 µM.

Question: And the TGI [6]?
Answer: The TGI was over 37.3 µM.

Question: And the GI50 [7]?
Answer: The GI50 was 1.43 µM.

Question: What about the TGI [7] of the same compound?
Answer: Its TGI is 3.03 µM.

Question: And the GI50 [8]?
Answer: Its GI50 is 60.5 µM.

Question: And the TGI [8]?
Answer: Its TGI is over 100 µM.

Question: What about the GI50 [9] of the same compound?
Answer: Its GI50 is 34.8 µM.

Question: What about the TGI [9] of the same compound?
Answer: Its TGI is over 100 µM.

Question: And the GI50 [10]?
Answer: Its GI50 is over 80.3 µM.

Question: What about the TGI [10] of the same compound?
Answer: The TGI was over 100 µM.

Question: And the GI50 [11]?
Answer: Its GI50 is 22 µM.

Question: What about the TGI [11] of the same compound?
Answer: The TGI was over 100 µM.

Question: What about the GI50 [12] of the same compound?
Answer: Its GI50 is over 100 µM.

Question: And the TGI [12]?
Answer: Its TGI is over 100 µM.

Question: What about the GI50 [13] of the same compound?
Answer: Its GI50 is over 100 µM.

Question: And the TGI [13]?
Answer: The TGI was over 100 µM.

Question: What about the GI50 [14] of the same compound?
Answer: Its GI50 is 5.78 µM.

Question: What about the TGI [14] of the same compound?
Answer: Its TGI is over 100 µM.

Question: And the GI50 [15]?
Answer: The GI50 was over 100 µM.

Question: What about the TGI [15] of the same compound?
Answer: The TGI was over 100 µM.

Question: What about the GI50 [16] of the same compound?
Answer: Its GI50 is 52.4 µM.

Question: What about the TGI [16] of the same compound?
Answer: The TGI was over 100 µM.

Question: And the GI50 [17]?
Answer: Its GI50 is 51.7 µM.

Question: What about the TGI [17] of the same compound?
Answer: The TGI was over 100 µM.

Question: And the GI50 [18]?
Answer: Its GI50 is 23 µM.

Question: What about the TGI [18] of the same compound?
Answer: Its TGI is over 100 µM.

Question: And the GI50 [19]?
Answer: The GI50 was over 100 µM.

Question: And the TGI [19]?
Answer: Its TGI is over 100 µM.

Question: What about the GI50 [20] of the same compound?
Answer: Its GI50 is 21.2 µM.

Question: What about the TGI [20] of the same compound?
Answer: The TGI was over 100 µM.

Question: And the GI50 [21]?
Answer: The GI50 was 44.9 µM.

Question: What about the TGI [21] of the same compound?
Answer: The TGI was over 100 µM.

Question: And the GI50 [22]?
Answer: Its GI50 is 28.6 µM.

Question: What about the TGI [22] of the same compound?
Answer: Its TGI is over 100 µM.

Question: What about the GI50 [23] of the same compound?
Answer: Its GI50 is 97.7 µM.

Question: And the TGI [23]?
Answer: Its TGI is over 100 µM.

Question: And the GI50 [24]?
Answer: Its GI50 is 16.3 µM.

Question: And the TGI [24]?
Answer: The TGI was over 100 µM.

Question: What about the GI50 [25] of the same compound?
Answer: The GI50 was over 100 µM.

Question: And the TGI [25]?
Answer: The TGI was over 100 µM.

Question: What about the GI50 [26] of the same compound?
Answer: Its GI50 is 11.8 µM.

Question: And the TGI [26]?
Answer: The TGI was over 100 µM.

Question: What about the GI50 [27] of the same compound?
Answer: Its GI50 is 34.5 µM.

Question: And the TGI [27]?
Answer: The TGI was over 100 µM.

Question: And the GI50 [28]?
Answer: Its GI50 is over 100 µM.

Question: What about the TGI [28] of the same compound?
Answer: Its TGI is over 100 µM.

Question: And the GI50 [29]?
Answer: The GI50 was over 100 µM.

Question: And the TGI [29]?
Answer: Its TGI is over 100 µM.

Question: What about the GI50 [30] of the same compound?
Answer: The GI50 was over 100 µM.

Question: What about the TGI [30] of the same compound?
Answer: The TGI was over 100 µM.

Question: What about the GI50 [31] of the same compound?
Answer: The GI50 was 33.5 µM.

Question: What about the TGI [31] of the same compound?
Answer: Its TGI is over 100 µM.

Question: And the GI50 [32]?
Answer: The GI50 was over 100 µM.

Question: What about the TGI [32] of the same compound?
Answer: The TGI was over 100 µM.

Question: And the GI50 [33]?
Answer: Its GI50 is 25.9 µM.

Question: What about the TGI [33] of the same compound?
Answer: Its TGI is over 100 µM.

Question: And the GI50 [34]?
Answer: Its GI50 is 4.92 µM.

Question: What about the TGI [34] of the same compound?
Answer: The TGI was over 75.5 µM.

Question: What about the GI50 [35] of the same compound?
Answer: Its GI50 is over 100 µM.

Question: And the TGI [35]?
Answer: Its TGI is over 100 µM.

Question: What about the GI50 [36] of the same compound?
Answer: The GI50 was 1.37 µM.

Question: What about the TGI [36] of the same compound?
Answer: The TGI was 3.38 µM.

Question: And the GI50 [37]?
Answer: Its GI50 is over 100 µM.

Question: What about the TGI [37] of the same compound?
Answer: Its TGI is over 100 µM.

Question: What about the GI50 [38] of the same compound?
Answer: Its GI50 is 99.2 µM.

Question: What about the TGI [38] of the same compound?
Answer: The TGI was over 100 µM.

Question: What about the GI50 [39] of the same compound?
Answer: Its GI50 is over 92.7 µM.

Question: And the TGI [39]?
Answer: Its TGI is over 100 µM.

Question: And the GI50 [40]?
Answer: Its GI50 is 3.76 µM.

Question: What about the TGI [40] of the same compound?
Answer: Its TGI is 16.7 µM.

Question: What about the GI50 [41] of the same compound?
Answer: The GI50 was over 100 µM.

Question: What about the TGI [41] of the same compound?
Answer: Its TGI is over 100 µM.

Question: And the GI50 [42]?
Answer: The GI50 was 22.5 µM.

Question: What about the TGI [42] of the same compound?
Answer: Its TGI is over 95.9 µM.

Question: What about the GI50 [43] of the same compound?
Answer: The GI50 was over 100 µM.

Question: What about the TGI [43] of the same compound?
Answer: The TGI was over 100 µM.

Question: And the GI50 [44]?
Answer: Its GI50 is over 81.8 µM.

Question: And the TGI [44]?
Answer: Its TGI is over 100 µM.

Question: What about the GI50 [45] of the same compound?
Answer: The GI50 was 12.7 µM.

Question: What about the TGI [45] of the same compound?
Answer: Its TGI is over 100 µM.

Question: What about the GI50 [46] of the same compound?
Answer: The GI50 was over 100 µM.

Question: And the TGI [46]?
Answer: Its TGI is over 100 µM.

Question: What about the GI50 [47] of the same compound?
Answer: The GI50 was over 35 µM.

Question: What about the TGI [47] of the same compound?
Answer: The TGI was over 100 µM.
